# Assay results taken from US20030096237A1, “Determination of the ability of patients to respond to a tumor treatment” (priority 2000, published 2003).
# System: CNCM I-2545
# Test: oligonucleotide array analysis of IFN-α modulated gene expression
# Assay type: cell-based, human
# Design: key to nAD M94880 mhc class i (hla-a*8001): normalized average difference between perfect and mismatch probeset signals
# Experimental: All these cell lines were cultured in RPMI medium supplemented with 10% FCS, glutamine (2 mM), sodium pyruvate (1 mM), non-essential amino acids and HEPES buffer (10 mM) (all from GIBCO Life Sciences, Paisley, UK). When confluent, the cells were passaged by trypsinization.
# Cultured melanoma cells were harvested by scraping and total cellular RNA was extracted. 10 μg from each sample were used directly as templates for cDNA synthesis using a commercial kit (Roche Molecular Biochemicals, Rotkreuz, Switzerland). The T7 promoter sequence incorporated into the cDNA synthesis primer allowed template amplification and biotin labeling by in vitro transcription using a commercial kit (Affymetrix, Santa Clara, Calif.). After alkaline heat fragmentation […] was hybridised to the array (Affymetrix, Santa Clara, Calif.) and all subsequent steps were performed following standard procedures as supplied with the arrays. Raw data were collected with a confocal laser scanner (Hewlett Packard, Palo Alto, Calif.) using GeneChip software v3.1 (Affymetrix, Santa Clara, Calif.).
# Raw data were normalized based on the total chip signal obtained upon hybridisation of ME15 cell line cDNA. This array was selected because: i) the 5′/3′ intensity ratio of control genes was smaller than 3; ii)>25% of the genes are called “present” by Genechip; iii) the image appearance is homogeneous with low background and no sign of mechanical chip damage.
# The normalized average difference (nAD) between the signals of the perfect and of the mismatch probesets for each gene was used as the expression level of a given gene. At least one nAD value in a pairwise comparison of data has to exceed 50 to be included. Based on nAD, change factors related to IFN-α exposure were also calculated. Negative nAD values were set to 20 in order to avoid the calculation of artificially high modifications. In order to exclude artefacts, only genes with robust change factors, greater than 2-fold, were included in the analysis. […] Genes were clustered according to their mode of regulation.
# Total cellular RNA was extracted from the sensitive and resistant melanoma cell lines identified above, reverse transcribed and processed for hybridization to an oligonucleotide array (Hu6800FL, PN 900183) containing probe sets derived from 7000 full-length human genes. Expression levels for each gene were calculated as normalized average difference (nAD, see materials and methods).
# Patterns of genes expressed in IFN-α sensitive and resistant melanoma cell lines were investigated upon 48 hour culture in the presence of IFN-α. CNCM I-2546 and CNCM I-2545 were studied in detail.
# In Table 2 below, CNCM I-2546 and CNCM I-2545 cultured for 48 hours in the absence or in the presence of 100 U/ml IFN-α were used to assay cytokine modulated gene expression as matched with data obtained in fibrosarcoma cells. This analysis yielded six clusters of genes. […] Data are presented as average difference of signal intensity between match and mismatch probesets.
# In Table 3 below, CNCM I-2546 and CNCM I-2545 cell lines cultured for 48 hours in the absence or in the presence of 100 U/ml IFN-α were used to identify novel cytokine induced genes whose expression was not found to be modulated in fibrosarcoma cells. Cluster 1 includes genes inducible in the CNCM I-2546 sensitive but not in the CNCM I-2545 resistant cell line. Cluster 2 comprises genes inducible in both lines. Data are presented as average difference of signal intensity between match and mismatch probesets.
# [1] = CNCM I-2545 (+) IFN-α 100 U/ml 48 hours, (−) 11
# [2] = CNCM I-2545 (+) IFN-α 100 U/ml 48 hours, (−) 106
# [3] = CNCM I-2545 (+) IFN-α 100 U/ml 48 hours, (−) 115
# [4] = CNCM I-2545 (+) IFN-α 100 U/ml 48 hours, (−) 234
# [5] = CNCM I-2545 (+) IFN-α 100 U/ml 48 hours, (−) 238
substance,measurement,setting,value
IFN-α,nAD X15949 interferon regulatory factor-2 (irf-2),"CNCM I-2545 (+) IFN-α 100 U/ml 48 hours, (−) 0",13
same,nAD M92642 alpha-1 type xvi collagen (col16a1),[1],115
same,nAD U18018 ela enhancer binding protein (ela-f),[1],23
same,nAD M30818 interferon-induced cellular resistance mediator protein,"CNCM I-2545 (+) IFN-α 100 U/ml 48 hours, (−) 20",5
same,nAD L07633 interferon-gamma,"CNCM I-2545 (+) IFN-α 100 U/ml 48 hours, (−) 22",275
same,"nAD X70848 protein phosphatase 1, catalytic subunit","CNCM I-2545 (+) IFN-α 100 U/ml 48 hours, (−) 24",226
same,nAD D28137 bst-2,"CNCM I-2545 (+) IFN-α 100 U/ml 48 hours, (−) 37",88
same,nAD J03909 gamma-interferon-inducible protein (ip-30),"CNCM I-2545 (+) IFN-α 100 U/ml 48 hours, (−) 42",142
same,nAD L42243 ifnar2 gene (interferon receptor),"CNCM I-2545 (+) IFN-α 100 U/ml 48 hours, (−) 62",−6
same,nAD J04182 lysosomal membrane glycoprotein-1 (lamp1),"CNCM I-2545 (+) IFN-α 100 U/ml 48 hours, (−) 66",484
same,"nAD D78132 rheb gene, ras-related gtp binding protein gene","CNCM I-2545 (+) IFN-α 100 U/ml 48 hours, (−) 88",253
same,nAD Z56281 interferon regulatory factor 3,"CNCM I-2545 (+) IFN-α 100 U/ml 48 hours, (−) 93",31
same,nAD U53830 interferon regulatory factor 7a,"CNCM I-2545 (+) IFN-α 100 U/ml 48 hours, (−) 103",5
same,nAD L40387 thyroid receptor interactor (trip14),"CNCM I-2545 (+) IFN-α 100 U/ml 48 hours, (−) 104",5
same,nAD J00212 leukocyte interferon (ifn-alpha),[2],9
same,nAD U50648 interferon-inducible rna-dependent protein kinase (pkr),[2],46
same,nAD U69126 fuse binding protein 2 (fbp2),"CNCM I-2545 (+) IFN-α 100 U/ml 48 hours, (−) 114",159
same,nAD M60784 ul snrnp-specific protein,[3],413
same,nAD U70063 human acid ceramidase,[3],400
same,nAD U72882 interferon-induced leucine zipper protein (ifp35),"CNCM I-2545 (+) IFN-α 100 U/ml 48 hours, (−) 125",27
same,nAD X76538 mpv17,"CNCM I-2545 (+) IFN-α 100 U/ml 48 hours, (−) 132",101
same,"nAD M19650 2′,3′-cyclic nucleotide 3prime-phosphodiesterase","CNCM I-2545 (+) IFN-α 100 U/ml 48 hours, (−) 137",99
same,nAD X57522 ring4 cdna,"CNCM I-2545 (+) IFN-α 100 U/ml 48 hours, (−) 143",49
same,nAD M65028 heterogeneous nuclear ribonucleoprotein a/b,"CNCM I-2545 (+) IFN-α 100 U/ml 48 hours, (−) 154",353
same,nAD K01900 lymphocyte interferon alpha type 201,"CNCM I-2545 (+) IFN-α 100 U/ml 48 hours, (−) 156",7
same,nAD U78525 human eukaryotic translation initiation factor (eif3),"CNCM I-2545 (+) IFN-α 100 U/ml 48 hours, (−) 165",372
same,nAD M79462 pml-1,"CNCM I-2545 (+) IFN-α 100 U/ml 48 hours, (−) 201",11
same,nAD L37043 casein kinase i epsilon,"CNCM I-2545 (+) IFN-α 100 U/ml 48 hours, (−) 218",221
same,nAD X04412 plasma gelsolin,"CNCM I-2545 (+) IFN-α 100 U/ml 48 hours, (−) 220",220
same,nAD X96401 rox protein,"CNCM I-2545 (+) IFN-α 100 U/ml 48 hours, (−) 229",83
same,nAD D50914 EST,[4],78
same,nAD X07730 prostate specific antigen,[4],85
same,nAD U72206 guanine nucleotide regulatory factor (lfp40),[5],162
same,nAD Z26491 gene catechol o-methyltransferase,[5],181
same,nAD U91316 acyl-coa thioester hydrolase,"CNCM I-2545 (+) IFN-α 100 U/ml 48 hours, (−) 253",428
same,nAD U51127 interferon regulatory factor 5,"CNCM I-2545 (+) IFN-α 100 U/ml 48 hours, (−) 262",91
same,nAD U52513 rig-g,"CNCM I-2545 (+) IFN-α 100 U/ml 48 hours, (−) 289",10
same,nAD M97935 transcription factor isgf-3,"CNCM I-2545 (+) IFN-α 100 U/ml 48 hours, (−) 331",92
same,nAD U01824 glutamate/aspartate transporter,"CNCM I-2545 (+) IFN-α 100 U/ml 48 hours, (−) 339",35
same,"nAD HG2917 major histocompatibility complex, class i, e","CNCM I-2545 (+) IFN-α 100 U/ml 48 hours, (−) 353",322
same,nAD X90846 mixed lineage kinase 2,"CNCM I-2545 (+) IFN-α 100 U/ml 48 hours, (−) 357",60
same,nAD M31013 nonmuscle myosin heavy chain (nmhc),"CNCM I-2545 (+) IFN-α 100 U/ml 48 hours, (−) 377",263
same,nAD D21235 hhr23a protein,"CNCM I-2545 (+) IFN-α 100 U/ml 48 hours, (−) 388",346
same,nAD Y00264 amyloid a4 precursor,"CNCM I-2545 (+) IFN-α 100 U/ml 48 hours, (−) 392",427
same,nAD Z47055 farnesyl pyrophosphate synthetase like,"CNCM I-2545 (+) IFN-α 100 U/ml 48 hours, (−) 394",797
same,nAD U50327 protein kinase c substrate 80k-h gene (prkcsh),"CNCM I-2545 (+) IFN-α 100 U/ml 48 hours, (−) 401",236
same,nAD U61263 acetolactate synthase homolog,"CNCM I-2545 (+) IFN-α 100 U/ml 48 hours, (−) 410",301
same,nAD M34338 spermidine synthase,"CNCM I-2545 (+) IFN-α 100 U/ml 48 hours, (−) 472",277
same,nAD D49824 hla-b null allele,"CNCM I-2545 (+) IFN-α 100 U/ml 48 hours, (−) 527",267
same,nAD M94880 mhc class i (hla-a*8001),"CNCM I-2545 (+) IFN-α 100 U/ml 48 hours, (−) 551",421
same,nAD HG1612 macmarcks,"CNCM I-2545 (+) IFN-α 100 U/ml 48 hours, (−) 588",505
same,nAD U65579 mitochondrial nadh dehydrogenase-ubiquinone,"CNCM I-2545 (+) IFN-α 100 U/ml 48 hours, (−) 630",621
same,nAD X95325 dna binding protein a variant,"CNCM I-2545 (+) IFN-α 100 U/ml 48 hours, (−) 634",253
same,nAD U47025 fetal brain glycogen phosphorylase b,"CNCM I-2545 (+) IFN-α 100 U/ml 48 hours, (−) 672",465
same,nAD U18009 chromosome 17q21 clone lf113,"CNCM I-2545 (+) IFN-α 100 U/ml 48 hours, (−) 674",423
same,nAD J04444 cytochrome c-1 gene,"CNCM I-2545 (+) IFN-α 100 U/ml 48 hours, (−) 886",2268
same,"nAD HG658 major histocompatibility complex, class 1 c","CNCM I-2545 (+) IFN-α 100 U/ml 48 hours, (−) 1183",455
same,nAD D32050 alanyl-trna synthetase,"CNCM I-2545 (+) IFN-α 100 U/ml 48 hours, (−) 1458",761
same,nAD J00105 beta-2 microglobulin gene,"CNCM I-2545 (+) IFN-α 100 U/ml 48 hours, (−) 1668",2101
same,nAD X57351 1-8d gene from interferon-inducible gene family,"CNCM I-2545 (+) IFN-α 100 U/ml 48 hours, (−) 2469",2686
same,nAD U65932 extracellular matrix protein 1 (ecm1),"CNCM I-2545 (+) IFN-α 100 U/ml 48 hours, (−) 2498",1066
same,nAD L13210 mac-2 binding protein,"CNCM I-2545 (+) IFN-α 100 U/ml 48 hours, (−) 2555",2092
same,nAD K03515 neuroleukin,"CNCM I-2545 (+) IFN-α 100 U/ml 48 hours, (−) 2998",2552
same,nAD M98343 amplaxin (ems1),"CNCM I-2545 (+) IFN-α 100 U/ml 48 hours, (−) −24",63
same,"nAD L35249 vacuolar h + -atpase mr 56,000 subunit (ho57)","CNCM I-2545 (+) IFN-α 100 U/ml 48 hours, (−) −40",357
same,nAD U09579 melanoma differentiation associated (mda-6),"CNCM I-2545 (+) IFN-α 100 U/ml 48 hours, (−) −59",−26
same,nAD U41515 dss1,"CNCM I-2545 (+) IFN-α 100 U/ml 48 hours, (−) −62",123
same,nAD S81914 iex-1 = radiation-inducible immediate-early gene,"CNCM I-2545 (+) IFN-α 100 U/ml 48 hours, (−) −66",21
same,nAD M13755 interferon-induced 17-kda/15-kda protein,"CNCM I-2545 (+) IFN-α 100 U/ml 48 hours, (−) −163",31
same,"nAD U22970 16-jun gene, interferon-inducible peptide (6-16)","CNCM I-2545 (+) IFN-α 100 U/ml 48 hours, (−) −190",24
same,nAD J04164 interferon-inducible protein 27-sep,"CNCM I-2545 (+) IFN-α 100 U/ml 48 hours, (−) −447",−97
same,nAD X67325 p27,"CNCM I-2545 (+) IFN-α 100 U/ml 48 hours, (−) −460",−86
same,change factor (CF) D21235 hhr23a protein,"CNCM I-2545, IFN-α 100 U/ml 48 hours",−0.12
